“Also recorded” adds a separate entry of the source.
System: mdx mice
Assay: Migration of DiI-labeled tendon fibroblasts injected into tibialis anterior of mdx mice
Type: in vivo, mouse
Details: mdx mice pre-treated 1 mg/Kg, tendon fibroblasts injected one week after treatment, analysed after one month, vs vehicle
Protocol: FIG. 7. Andrographolide increases cell migration through fibrosis inhibition. A) Migration of DiI-labeled tendon fibroblast cells after injection into the tibialis anterior of 7-month-old mdx mice (3 months old mdx mice exercised for four months). […] B) Quantitative analysis of the spreading DiI-labeled tendon fibroblast cells was calculated by counting DiI-labeled cells in 200 μm×200 μm squares from three non-serial transverse sections for three mice per group.
3 month old mdx mice were exercised for 4 months and treated with 1 mg/Kg andrographolide or Vehicle. One week after the treatment, mice were anesthetized with an intramuscular injection of physiologic saline (10 ml kg^−1) containing ketamine (5 mg ml^−1) and xylazine (1 mg ml^−1) and then injected with approximately 5×10^5 tendon fibroblasts into the tibialis anterior muscle via a 0.20-mm diameter needle inserted along the cranio-caudal axis of the muscle as previously described (Gargioli et al., 2008). Fibroblasts were previously labeled with 2 mMDiI according to the protocol supplied by the manufacturer (Molecular Probes). One month after the injection, mice were sacrificed for morphological analyses.

Compound: C=C1CC[C@@H]2[C@](C)(CO)[C@H](O)CC[C@@]2(C)[C@@H]1C/C=C1/C(=O)OC[C@H]1O [andrographolide]
- DiI-labeled cell distribution in muscle: distributed more homogenously; also recorded: more homogenous

Source: patent US20140271573A1, “PHARMACO-CELLULAR THERAPEUTIC METHOD FOR THE TREATMENT OF MUSCULAR DYSTROPHIES” (PONTIFICIA UNIVERSIDAD CATÓLICA DE CHILE, priority 2013, published 2014)
